Data on 3 molecules can be found in patent US20250360171A1, “CHEMOGENETICALLY GATED ION CHANNELS AND USE THEREOF” (TECHNION RESEARCH & DEVELOPMENT FOUNDATION LIMITED, priority 2023, published 2025).

Experiment [1] has as its system CMs engineered to express the compound channel. Nature of the experiment: Coculture model: engineered CCS between two wild-type CCSs, reentrant arrhythmia. It is filed as cell-based, human. The settings on record: 5 nM. The text has this: (§1) To further illustrate the potential of this technology a coculture model of wild type CMs and CMs engineered to express the compound channel was generated (FIG. 8). In this model, only the CMs in the CCS between the two wild-type CCSs express the compound channel that is responsive to CNO. Reentrant arrhythmias were induced that spanned the whole model. […] As such, the arrhythmia became relegated to a single side of the model. That is an arrhythmia with a core in one CCS (for example the right one) become relegate to just that CCS upon application of CNO, while the other (left) CCS remained unaffected. It was further shown that the left CCS could be electrically paced, and conduction was successful until the wave front reaches the unexcitable engineered CMs. […] Thus, it is clear that native CMs are unaffected by CNO, but the genetically engineered CMs can be robustly ‘silenced’ by the application of CNO at very low concentrations (2-5 nM). Further, arrhythmias are succinctly terminated as a result of this silencing. Upon washout normal electrical activity resumed in the engineered CMs.

The test system of a further experiment is native CMs. Nature of the experiment: Coculture model: native (wild type) CMs. It is filed as cell-based, human. The following applies: 2-5 nM.
From the text: as §1

In experiment [2] the test system is cardiac cell sheets expressing SthK and Rm3D. Nature of the experiment: Reentrant arrhythmia in cardiac cell sheets expressing SthK and Rm3D, optical mapping. The format is cell-based, human. An excerpt: In order to express both the DREADD and the channel in the membrane of cardiomyocytes a vector encoding a single transcript was generated. The open reading frame for SthK was cloned downstream of the chicken B-actin promoter. Instead of a stop codon, at the end of SthK a P2A cleavable peptide was encoded followed by the Rm3D receptor in frame. The result is a reading frame (SEQ ID NO: 4) encoding an 874 amino acid construct (SEQ ID NO: 8) that is co-translationally cleaved near the end of the P2A peptide to produce separate SthK and Rm3D proteins from a single transcript.
Cardiac cell sheets (CCSs) were generated as a 2D tissue model from the transfected iPSC-CMs and the CCSs were loaded with an optical voltage-dependent dye and mapped using a high-speed EMCCD camera. […] Reentrant arrhythmias were induced by transient tachypacing, and the resultant arrhythmias were stable within the tissue (FIG. 7A). […] This was seen as an inability to excite the cells even with significant electrical stimulation. […] Furthermore, it was shown that a single washout of the drug led to rapid recovery of electrical excitability by electrical pacing (within 30-90 seconds of washout) and the spontaneous resumption of a normal rhythm (sinus) within 2-5 minutes, as would be expected after defibrillation/cardioversion (FIG. 7C). Thus, the arrythmias were successfully terminated upon application of CNO, and normal electrical activity returned almost immediately after washout.

A further experiment addresses T1, PSAM4-5HT3-HC channel (Homo sapiens, UniProt P36544, L131G/M226I/Q139L/T225I/Y217F).
T1 construct: expressed in transfected cells
The experiment is described as follows: Voltage-clamp / membrane potential recordings of PSAM4-5HT3-HC-expressing hiPSC-CMs. The format is cell-based. The following applies: for effect on Varenicline-induced depolarizing current: picrotoxin 100 uM, partial antagonist of 5HT3-IPD. The text has this:
The synthetic chemogenetic channel PSAM4-5HT3-HC was created by fusing a mutated α7-nicotinic acetylcholine receptor (PSAM4, engineered to bind the anti-smoking drug Varenicline at sub-therapeutic concentrations) with the ion pore-domain (IPD) of the serotonin receptor 3A (5HT3) with additional mutations made for high conductance (HC) (SEQ ID NO: 12). This molecule was disclosed in Magnus, et al., “Ultrapotent chemogenetics for research and potential clinical applications”, Science, 2019 April 12;364 (6436), hercin incorporated by reference in its entirety. This molecule has only ever been used in neurons; however, it was hypothesized that it could also be employed in other electrically active cells. Specifically, it was hypothesized that expressing this chemogenetic channel in cardiomyocytes would permit dose-dependent modulation of their excitable properties; with weak depolarizing currents leading to increased automaticity, and larger currents causing depolarization-induced electrical silencing.
To test these hypotheses, healthy-donor human induced pluripotent stem cells (hiPSCs) were transfected with a non-viral, randomly integrating, transposon to create a stably engineered line constitutively expressing the PSAM4-5HT3-HC channel together with cGFP (FIG. 1).

In experiment [3] the test system is control, non-transfected, hiPSC-CCSs. Nature of the experiment: Optical mapping of control, non-transfected hiPSC-CCSs. The format is cell-based, human. The following applies: any dose.
The test system of experiment [4] is control (non-transplanted) rat hearts. The experiment is described as follows: Optical mapping of Langendorff-perfused control (non-transplanted) rat hearts. The format is in vivo. The following applies: four control hearts, 30 nM with adenosine. An excerpt: (§2) Finally, chemogenetic hiPSC-CMs were transplanted into rat hearts. After 7-10 days, hearts were harvested, perfused ex-vivo using a custom-made Langendorff apparatus and optically mapped. Bradycardia was induced using adenosine.

Experiment [5] concerns control unmodified hiPSC-CMs. The experiment is described as follows: Patch-clamp of control unmodified hiPSC-CMs. The format is cell-based, human. The protocol:
At higher doses (10 nM), spontaneous generation of action potentials (Aps) ceased (FIG. 2B). This suppression of excitability likely results from the significant membrane diastolic depolarization (−64±7 mV to −10±4 mV; p<0.0001; FIG. 2C) due to the large Varenicline-induced inward current (−6.8±3.2 pA/pF; p<0.01; FIG. 2C).

Experiment [6] deals with PSAM4-5HT3-hiPSC-CMs / control hiPSC-CMs co-culture. Nature of the experiment: Co-culture of PSAM4-5HT3-cGFP-hiPSC-CMs beside control hiPSC-CMs, optical mapping. The format is cell-based, human. The protocol:
We next created a co-culture model where the PSAM4-5HT3-cGFP-hiPSC-CMs were seeded beside control hiPSC-CMs (FIG. 4A).
Next, it was tested whether this chemogenetic approach could suppress tissue automaticity and excitability when using higher concentrations of Varenicline (100 nM), as it did in single cells, albeit at lower concentration. This dosing discrepancy probably stems from the more limited drug diffusion and the presence of stronger electrotonic coupling (attenuating Varenicline-induced depolarization) at the tissue level.

The next experiment relates to PSAM4-5HT3-hiPSC-CCS. Nature of the experiment: Optical mapping of PSAM4-5HT3-hiPSC-CCS tissue model. It is filed as cell-based, human. The settings on record: 5-30 nM. An excerpt:
To assess the translational potential of these findings, a hiPSC-derived cardiac cell-sheet (hiPSC-CCS) tissue model generated from PSAM4-5HT3-hiPSC-CMs was utilized (FIG. 3A). […] This augmented automaticity was the result of Varenicline-induced depolarizing currents in pacemaker cells driving activity of the cultures.

The subject of experiment [7] is rat hearts transplanted with chemogenetic hiPSC-CMs. Nature of the experiment: Optical mapping of Langendorff-perfused rat hearts engrafted with chemogenetic hiPSC-CMs. It is filed as in vivo. The settings on record: 30 nM, adenosine-induced bradycardia, 7-10 days after transplantation, ex-vivo perfusion.
From the text: as §2

T1 sequence (P36544 with tags, fused parts or gaps L131G/Q139L/Y217F/T225I/M226I): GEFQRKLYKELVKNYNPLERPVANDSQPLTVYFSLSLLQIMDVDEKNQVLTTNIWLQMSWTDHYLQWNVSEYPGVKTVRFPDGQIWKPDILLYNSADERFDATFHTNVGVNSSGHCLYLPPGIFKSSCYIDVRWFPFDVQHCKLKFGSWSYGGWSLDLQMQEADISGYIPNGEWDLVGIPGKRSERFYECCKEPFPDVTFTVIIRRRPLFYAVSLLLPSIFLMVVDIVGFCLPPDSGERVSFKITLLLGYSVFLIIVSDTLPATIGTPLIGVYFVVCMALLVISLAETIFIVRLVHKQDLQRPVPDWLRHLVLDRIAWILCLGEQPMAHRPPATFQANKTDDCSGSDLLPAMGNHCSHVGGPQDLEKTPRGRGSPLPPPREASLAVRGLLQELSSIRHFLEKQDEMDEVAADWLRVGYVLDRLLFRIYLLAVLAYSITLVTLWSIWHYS

On to `C[N+]1([O-])CCN(C2=Nc3cc(Cl)ccc3Nc3ccccc32)CC1` [CNO, clozapine-N-oxide], for which, in [1], the “conduction of arrhythmia across engineered cells” value was “could no longer cross the engineered cells”. Further, the “effect on native CMs” value in the experiment with native CMs is given as “unaffected”. Also, in experiment [2] (2-5 nM), the “electrical activity of the CCS” value was “rapid inactivation (silencing)” and the “termination of existing reentrant arrhythmias” value is recorded as “sufficient to completely terminate existing arrhythmias”. Also, in experiment [2] (single washout), the “time to recovery of electrical excitability by electrical pacing after washout” value lay within 30 to 90 s and the “time to spontaneous resumption of a normal rhythm (sinus) after washout” value is 2 to 5 min.
Regarding picrotoxin, the “effect on Varenicline-induced depolarizing current” value on PSAM4-5HT3-HC channel is given as “suppressing the depolarizing current”; on PSAM4-5HT3-HC channel (listed as Picrotoxin), “partially reversed”.
Regarding `c1cnc2cc3c(cc2n1)[C@@H]1CNC[C@H]3C1` [Varenicline], in [3], the chronotropic effects result is given as “no chronotropic effects”. For the same molecule, the “shift in the activation pattern” value in experiment [4] was “did not occur”. The “response to Varenicline” value in experiment [5] was “No response”. Further, in [6] (100 nM), the “excitability of the region containing non-transfected cells” value is on record as “retained its excitable properties” and the “spontaneous activity of the co-cultures” value is reported as “significantly slowed”. The “electrical activity in the PSAM4-5HT3-hiPSC-CMs area” value in [6] (100 nM, in some specimens) is on record as “complete silencing of electrical activity”. The “origin of spontaneous activity (pacemaker area)” value in experiment [6] (baseline origin in control tissue) was “shifted the pacemaker area to the PSAM4-5HT3-HC tissue”. The automaticity of co-culture entry in experiment [6] (escalating doses) is recorded as “augmented automaticity in a dose-dependent manner”. Moreover, the “increase of spontaneous rhythm over baseline” value in [6] (rhythm arising from the PSAM4-5HT3-hiPSC-CMs) is on record as over 6 fold. The “spontaneous generation of action potentials” value at PSAM4-5HT3-HC channel (10 nM) was “ceased”. Moreover, the “membrane diastolic potential after Varenicline” value at PSAM4-5HT3-HC channel (depolarization from −64±7 mV, p<0.0001, 10 nM (FIG. 2)) was −10±4 mV. Further, the Varenicline-induced inward current on PSAM4-5HT3-HC channel (p<0.01, FIG. 2C) was −6.8±3.2 pA/pF. Also, the Varenicline-induced depolarizing currents result at PSAM4-5HT3-HC channel (voltage-clamp, even at low concentrations (1 nM)) is “robust Varenicline-induced depolarizing currents”. Also, the “cultures' activation frequency” value in the experiment on PSAM4-5HT3-hiPSC-CCS is “dose-dependent increase”. Besides, the “hearts developing ectopic ventricular activity from area of cell transplantation” value in experiment [7] is reported as “four out of five”.
